Source: patent US7173021B2, “Synthesis of temozolomide esters as potent anticancer pro-drugs for topical and transdermal applications in treatments of cancers” (Tianjin North Pharm Sci-Tech Co., Ltd., priority 2004, dated 2007)
Converted amounts (≈) assume the structure as drawn. Marks after values point to notes of the source that are not given here.

Assays:
[1] = system: A549 (human non small lung); test: In vitro tumour cell growth inhibition (MTT), A549; format: cell-based; conditions: Table 1 experiment, 96 h
Description: (§1) Temozolomide (white powder), temozolomide acid (white powder) and temozolomide-8-carboxylate hexyl (white scale crystal) were made in house. For the estimation of in vitro tumour cell growth inhibition, MV3 (human melanoma), M14 (human melanoma), B16 and B16-BL6 (mouse melanoma), SHG-44, TJ899 and TJ905 (human glioma), MCF-7 (human breast), HCT-8 (human colon), A549 (human non small lung), Bel7402 (human hepatocellulor), and BGC-823 (human stomach) were used. All tumour cells were cultured in RPMI-1640 medium supplemented with 10% fetal bovine serum (FBS) at 37° C. in a humidified 5% CO2 incubator.
(§2) After being harvested from culture flasks, a cell suspension of 1×10^4/ml was made by using 1640 RPMI medium supplemented with 10% fetal bovine serum. 100 μl (contains 1000 tumour cells) of the cell suspension was seeded per well of 96-well flat-bottom Costar culture plates at 37° C. in a humidified 5% CO2 incubator for 24 hrs before introducing drugs. Each tested compounds was made for five different concentrations and 100 μl of the each concentration was introduced into parallel three wells; control wells were added with 100 μl of plain medium alone; fluorouracil (a chemotherapeutic antitumour drug) was used as the positive control. Cells were then incubated for 96 h. Proliferative response and cell death were determined using MTT (3-(4,5-dimethylthiazolyl)-2,5-diphenyl-tetrazolium bromide) assay.
(§3) MTT assay: Following incubation of cells with the tested compounds for 96 h, 100 μl of 0.4 mg/ml MTT in RPMI 1640 was added to each well and the plate was incubated at 37° C. for 4 h. The plate was then centrifuged and followed by removal of medium. 150 μl of DMSO was then added to dissolve formazan crystal. DMSO-added plates were placed on a plate shaker for 5 min and absorbance was measured spectrophotometrically at 540 nm (with reference wavelength at 450 nm) using a Benchmark microtiter plate reader (Bio-Rad 550, Bio-Rad Laboratories, CA, U.S.A.).
The IC50 was calculated from the curve of the tested compound concentrations against the inhibition rate of the tumour cells. […]

M14 (human melanoma) = test: In vitro tumour cell growth inhibition (MTT), M14; format: cell-based; conditions: Homo sapiens, Table 2 experiment, 96 h
Description: as §1, §2, §3
The IC50 was calculated from the curve of the tested compound concentrations against the inhibition rate of the tumour cells. Table 1 summarized the experiment results by using six human cancer cell lines, HCT-8 (colon carcinoma), A549 (non small lung carcinoma), MCF-7 (breast), Bel7402 (hepatocellulor carcinoma), BGC-823 (stomach adenocarcinoma), and MV3 (melanoma). Table 2 summarized the results from the experiment results by using two human melanoma cell lines, MV3 and M14, two mouse melanoma cell lines, B16 and B16-BL6, and three human glioma cell lines, TJ899, SHG-44 and TJ905.

MV3 melanoma (human) = test: In vivo antitumour activity, BALB/c nude mice inoculated with MV3 melanoma, topical application; conditions: 20 mg/mouse/day topical
Description: The temozolomide hexyl ester is chosen to conduct an in viva antitumour test. BALB/c nude mice were inoculated with MV3 melanoma (human). Once the tumour volume became 100–300 mm^3, the mice were divided into a controlled and a tested group of eight with a rational distribution of the mice according to the sizes of the tumours. The tested group was treated with 5% (W/V) free made dimethyl sulfoxide (DMSO) solution of the temozolomide hexyl ester twice a day (once on Saturday and Sunday) via repeated topical application (total dosage is 20 mg/mouse/day), while the controlled group was left to grow naturally. In a period of two-week experiment, the tumour growth in the mice was carefully recorded through body weighing and the measurement of the tumour sizes. After two weeks, the mice were scarified; tumour bulks were separated and weighed. The results of inhibition of tumour growth by the temozolomide hexyl ester are summarized in Table 5 and depicted in FIG. 10.
Preparation of 5% (W/V) DMSO solution of the temozolomide hexyl ester is carried out by weighing a actual amount of the temozolomide hexyl ester, then using DMSO to make the concentration to 50 mg/ml. After temozolomide hexyl ester is completely dissolved and a clear solution is obtained, the fresh made 5% (W/V) DMSO solution of the temozolomide hexyl ester is used in the experiments.
BALB/c nude mice were inoculated with MV3 melanoma (human). Once the tumour bulk became 100–300 mm^3, the mice were divided into a controlled and a tested group with a rational distribution of the mice according to the sizes of the tumours. Each group is consisted of 8 mice.
The tested group was treated with 5% (W/V) DMSO solution of the temozolomide hexyl ester twice a day (once on Saturday and Sunday) via repeated topical application on position of tumour and around of 2×2 cm^2 region (total dosage is 20 mg/mouse/day); while the controlled group was left free of treatment to allow the tumour to growth naturally.
The tumour volumes (TV) in the mice were measured for twice of a week, calculated using TV(mm^3)=(length×width^2)÷2, and carefully recorded and finally depicted in FIG. 10. After two weeks, the mice were scarified; tumour bulks were isolated, weighed and calculated the growth inhibition rate of MV3 melanoma (human) in BALB/c nude mice by the temozolomide hexyl ester. The antitumour activity of the temozolomide hexyl ester against MV3 melanoma (human) in BALB/c nude mice is evaluated by the relative tumour proliferation ratio (T/C %). T/C (%) is calculated by the following equation:
Where, RTV=Vt/Vo (Vo is the tumour volume (TV) at the time when the mice were divided into the tested group and the controlled group; Vt is the tumour volume (TV) were measured at each time interval FIG. 10). The criteria for effectiveness are (1) when T/C (%)>60, the compound is no effect; (2) when T/C (%)≦60 and statistically significant P<0.05, the compound is effect. In the case of the temozolomide hexyl ester, the T/C (%) in BALB/c nude mice bearing MV3 melanoma (human) is 33.7% (Table 3) and P<0.05.

## CCCCCCOC(=O)c1ncn2c(=O)n(C)nnc12 [temozolomide hexyl ester, Hexyl 3,4-dihydro-3-methyl-4-oxoimidazo[5,1-d]-1,2,3,5-tetrazine-8-carboxylate]
[1]
  IC50: 26.6 µg/mL (≈ 95.4 µM)
M14 (human melanoma)
  IC50: > 100 µg/mL
MV3 melanoma (human); after two weeks, mean ± SD
  Body weight, end: 22.9 ± 2.23 g
  Tumour weight: 0.41 ± 0.318 g
MV3 melanoma (human); after two weeks, mean ± SD, P < 0.05 vs control
  Tumour volume, end: 622 ± 545.1* mm^3
MV3 melanoma (human); start, mean ± SD
  Body weight, start: 24.0 ± 1.53 g
  Tumour volume, start: 116 ± 27 mm^3
MV3 melanoma (human); RTV=Vt/Vo, two weeks
  RTV: 3.01 ± 1.95
MV3 melanoma (human); from tumour weight, two weeks
  Inhibition (%) of tumour growth: 80.5%
MV3 melanoma (human); relative tumour proliferation ratio, two weeks
  T/C (%): 33.7%
